Results taken from US20080039453A1, “Enantiomerically pure R-etifoxine, pharmaceutical compositions thereof and methods of their use” (priority 2006, published 2008).

Legend:
[1] = system: human GABAA receptor subunits (α1β1-3γ2L GABAA receptors); experiment: Modulation of GABA-evoked currents in Xenopus oocytes (2-electrode clamp), GABA subunit selectivity; assay type: cell-based; details: for GABA subunit selectivity: modulation of GABA EC10-evoked currents in Xenopus oocytes expressing α1β1-3γ2L, FIGS. 4A and 4B
Procedure: GABA subunit selectivity of etifoxine enantiomers was measured based on their ability to modulate the GABA-evoked currents in Xenopus oocytes.
Receptor mRNA preparation: cDNA clones encoding human GABAA receptor subunits were obtained from commercial sources. mRNA was prepared using conventional techniques with commercially-available “mMessage machine” kits (Ambion). Individual mRNAs (˜1 μg/μL) were stored in aliquots at −80° C.
mRNA injections into Xenopus oocytes: Preparation and micro-injection of oocytes were performed as reported in detail previously (see, Whittemore et al., 1996, Mol Pharmacol 50: 1364-1375). Individual oocytes were injected with 5-50 ng of mRNA at 5:1:1 (GABA). For example, individual oocytes were injected with a 5:1:1 mixture of α1, β1-3, and γ2L (˜5-50 ng of each subunit per cell) to produce expression of α1β1-3γ2L GABAA receptors. Following injections, oocytes were maintained at 16-17° C. in Barth's medium containing (in mM): NaCl, 88; KCl, 1; CaCl2, 0.41; Ca(NO3)2, 0.33; MgSO4, 0.82; NaHCO3, 2.4; HEPES 5; pH=7.4, with 0.1 mg/ml gentamycin sulfate.
Oocyte Electrophysiological recordings: Individual oocytes were placed on a nylon mesh in a 35 mm dish, perfused with frog Ringer (see, Whittemore et al., supra), and voltage clamped at a holding potential of −70 mV. In some cases, simple voltage steps were made to test voltage-dependence. Oocytes were perfused with fresh Ringer or exposed to GABA ±modulators using a custom-made gravity-driven perfusion system consisting of a linear array of 3 capillary tubes. The concentration of GABA used to evoke control currents was adjusted for each individual oocyte to be 10% of the maximal current (EC10) measured in that cell. The concentration of GABA required to evoke EC10 ‘control’ currents varied between ˜2 and 12 μM. […] Data are expressed as % of control currents (% modulation=100*[(modulated current/GABA control current)−1].

[2] = system: mouse formalin pain model; experiment: Mouse formalin pain model (late phase licking); assay type: in vivo; details: male NSA mice, 60 mg/kg i.p., 30 minutes prior to formalin; FIG. 5
Procedure: The analgesic effect of test compounds was assessed in a mouse formalin pain model (Hole et al., 1993, Pain 53:247-254). Male NSA mice weighing between 27 and 30 g were housed with access to food and water ad libitum until the test date. On the day of testing, they were given a period of 1 h to adjust to the test chamber. Test compounds or vehicle control (75% polyethylene glycol in 5% dextrose+water) were administered i.p. at 30 minutes prior to the administration of formalin. A solution of 20 μl of 2.5% formalin was then injected subcutaneously into the dorsal side of the hind paw of the test mouse. Immediately following formalin injection, the mice were observed over the next 50 min and the time spent licking the injected hind paw was recorded. The observation time was broken down into 5 minute “bins”, with 10 bins in total. The first 5-min bin is the early phase, considered to be reflective of acute pain. Bins three to ten make up the late phase, considered a measure of chronic inflammatory pain. The results for the late phase are expressed as the averaged mean time (in seconds) that mice spent licking in a 5-min period.
Dose-response relationship was conducted in the range of 3 to 60 mg/kg. Statistical differences in response were determined by one-way analysis of variance with the Dunnett's post-hoc test by using the Prism3 statistical software (GraphPad, Inc., San Diego, Calif.).

## CCNC1=Nc2ccc(Cl)cc2C(C)(c2ccccc2)O1 (single isomer, unassigned) [S-etifoxine, 6-chloro-2-(ethylamino)-4-methyl-4-phenyl-4H-3,1-benzoxazine]
[1]
  GABA subunit selectivity: shows selectivity for GABA receptor comprising β subunit
[1]; modulation of GABA EC10-evoked currents in Xenopus oocytes, FIG. 4B
  selectivity for β2 subunit versus β1 subunit: more selective for β2 subunit than β1 subunit

## CCNC1=Nc2ccc(Cl)cc2C(C)(c2ccccc2)O1 (single isomer, unassigned) [R-etifoxine, 6-chloro-2-(ethylamino)-4-methyl-4-phenyl-4H-3,1-benzoxazine]
[1]
  GABA subunit selectivity: little or no GABA subunit selectivity
[2]
  analgesic effect in the formalin test (late phase licking): active
